How the values were obtained:
[1] = test system: NF-κB and NLRP3 inflammasome-dependent IL-1β release; test: LPS-induced IL-1β release in mice, measured by ELISA in plasma and peritoneal wash; type: in vivo; conditions: C57BL/6 mice, 100 mg/kg IP for 1 hour, then LPS 10 mg/kg IP for 2 hours
Description: (§1) While not wishing to be bound by theory, NLRP3 inflammasome activation is a mechanism that mediates the rejection of allotransplantation and in one embodiment of the described invention, it is a possible therapeutic target to treat allotransplantation of a heart. […] C57BL/6 mice were treated with SANA or salicylic acid (SA) (100 mg/kg, IP) or the vehicle (DMSO) for 1 hour. Then were injected with LPS (10 mg/kg, IP) or PBS for 2 hours, with subsequent peritoneal washes and blood extractions. Peritoneal wash and plasma were stored to measure IL-1β by ELISA. […] Rats were administrated with SANA or SA (100 mg/kg), SANA (50 mg/kg) or vehicle (Phosphate buffer) by oral gavage every day since day −1 until day 15 post-transplantation. Heart heterotopic transplantation was done by implantation of the donor heart (Lewis 1W rat) into the receptor abdomen (Lewis 1A rat). Rejection was diagnosed when the heart lost functionality (beats has stopped).

[2] = test system: fully mismatched heterotopic heart allograft; test: Fully mismatched heterotopic heart allograft survival in rats; type: in vivo, rat (Lewis 1W donor, Lewis 1A receptor); conditions: rat; SANA 100 mg/kg or 50 mg/kg by oral gavage daily from day −1 to day 15 post-transplantation; compared with control (vehicle) and precursor drug SA 100 mg/kg; FIG. 3
Description: as §1

## O=C(O)c1cc(/C=C/[N+](=O)[O-])ccc1O [SANA, 2-hydroxy-5-(2-nitroethenyl)benzoic acid]
[1]; peritoneal wash, FIG. 2
  effect on NF-κB and NLRP3 inflammasome-dependent IL-1β release in the peritoneum: inhibitory effect
[1]; plasma, FIG. 1
  effect on NF-κB and NLRP3 inflammasome-dependent IL-1β release in the plasma: inhibitory effect
[2]
  heart graft survival (rejection = heart beats stopped): prolonged the heart grafted survival

Source: patent US10632132B2, “Methods for treating heart transplant rejection” (priority 2018, dated 2020)
